Measurements: patent US20250213563A1, “SUBSTITUTED PYRIMIDIN-4(3H)-ONES FOR USE IN TREATING CANCER” (NAVIRE PHARMA, INC., priority 2021, published 2025)

Assays:
human SHP-1 = biological target: T1, human SHP-1 (Homo sapiens, UniProt P29350); test: Eurofins Panlabs spectrofluorimetric phosphatase assay; type: biochemical; conditions: 10 μM
T1 construct: a panel of 14 full-length human phosphatases; purchased Eurofins Panlabs
Procedure: The activity of Compound (10b) was also assessed against a panel of 14 full-length human phosphatases using spectrofluorimetric biochemical assays. These assays were conducted using the Eurofins Panlabs platform.

[1] = tested on: panel of 73 receptors and ion channels and 12 additional enzymes; test: Eurofins Cerep off-target panel; conditions: 10 μM
Procedure: In addition to the kinase and phosphatase screens, Compound (10b) (10 μM) was tested against a panel of 73 receptors and ion channels and 12 additional enzymes using the Eurofins Cerep platform. In this screen, inhibition or stimulation of >50% is considered to be a significant effect.

[2] = Single-dose pharmacokinetics, Sprague Dawley rat; type: in vivo, male); conditions: for AUC(0-t): read-out: AUC0→24
Procedure: (§1) The pharmacokinetic (PK) parameters of Compound (10b) (freebase) were determined following single intravenous (IV) and oral (PO) administration in female CD-1 mouse, female C57BL/6 mouse (PO only), male Sprague Dawley rat, male Beagle dog, and male Cynomolgus monkey. Additional evaluation of the PK properties of Compound (10b) was obtained following single dose PO administration in female CD-1 mouse, male Sprague Dawley rat and male Beagle dog over a dose range spanning 10 to 300 mg/kg (mouse and rat) and 1 to 100 mg/kg (dog). The intravenous dose solutions were prepared in 20% DMSO-60% PEG400-20% water and the oral dose solutions as suspensions in 0.5% methylcellulose in water, unless otherwise noted. Plasma concentration profiles were generated from serial sampling in individual animals up to 24 hours post dose, except for the studies in mice where composite sampling methods were used (i.e. 3 sampling times per mouse; 9 mice per group). […] Exposures increased with increasing dose level across species, in a dose-proportional manner in mouse and dog, and in a greater than dose-proportional manner in rat (80× increase in AUC with a 30× increase in dosage).

[3] = Single-dose pharmacokinetics, Cynomolgus monkey; type: in vivo, male); conditions: free base; for AUC(0-t): read-out: AUC0→24
Procedure: as §1

[4] = Single-dose pharmacokinetics, summary across species; type: in vivo; conditions: both sexes, CD-1, C57BL/6, Sprague Dawley, Beagle, mouse, rat, dog, monkey, plasma
Procedure: as §1

NCI-H1299 = test: pERK protein levels (HTRF); type: cell-based; conditions: Homo sapiens; NCI-H1299, NRAS^Q61K
Procedure: (§2) The potency of Compound (10b) in a panel of human tumor cell lines with active MAPK signaling was assessed. Cell viability in a 3D culture system was assessed by measuring CellTiter-Glo (CTG) luminescence following 8 days of treatment with nine concentrations of Compound (10b). MAPK pathway signaling was assessed by measuring pERK protein levels and DUSP6 mRNA levels by homogeneous time resolved fluorescence (HTRF) and quantitative polymerase chain reaction (qPCR), respectively. […] These viability effects correlated with pERK inhibition (Table 2, FIG. 6B) and DUSP6 inhibition (FIG. 6C).

NCI-H358 = test: pERK protein levels (HTRF); type: cell-based; conditions: Homo sapiens; NCI-H358, KRAS^G12C
Procedure: as §2

[5] = Monotherapy studies across panel of CDX models, tolerability; type: in vivo, immunocompromised mice; conditions: 100 mg/kg daily orally, 21 to 33 days, all CDX models
Procedure: In vivo efficacy studies were conducted to evaluate the monotherapy anti-tumor activity of Compound (10b) across a panel of cell line-derived xenograft (CDX) models. […] Significant anti-tumor efficacy was also observed in two CDX models with acquired resistance to EGFR inhibitors.

[6] = male, Sprague Dawley, rat, plasma, IV 0.3 mg/kg, free base
[7] = male, Sprague Dawley, rat, plasma, oral 10 mg/kg, free base
[8] = male, cynomolgus monkey, plasma, IV 0.3 mg/kg
[9] = male, cynomolgus monkey, plasma, oral 1 mg/kg

T1 sequence (P29350 whole entry): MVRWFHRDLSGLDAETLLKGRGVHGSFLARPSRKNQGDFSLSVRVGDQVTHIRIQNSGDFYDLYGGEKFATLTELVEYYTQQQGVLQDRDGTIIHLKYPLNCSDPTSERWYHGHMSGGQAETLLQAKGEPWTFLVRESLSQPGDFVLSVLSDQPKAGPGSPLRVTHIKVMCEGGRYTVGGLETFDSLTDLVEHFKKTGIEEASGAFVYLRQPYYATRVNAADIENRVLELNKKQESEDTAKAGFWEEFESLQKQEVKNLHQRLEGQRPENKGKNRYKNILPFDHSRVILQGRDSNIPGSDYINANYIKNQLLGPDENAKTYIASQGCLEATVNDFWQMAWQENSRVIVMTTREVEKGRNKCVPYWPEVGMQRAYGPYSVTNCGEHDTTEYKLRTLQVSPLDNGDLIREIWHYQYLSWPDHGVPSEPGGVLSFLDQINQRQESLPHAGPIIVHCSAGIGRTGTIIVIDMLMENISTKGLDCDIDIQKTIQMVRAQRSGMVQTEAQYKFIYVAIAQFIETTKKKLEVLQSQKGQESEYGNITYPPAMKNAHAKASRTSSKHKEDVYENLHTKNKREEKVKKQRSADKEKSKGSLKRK

## Cc1c(N2CCC3(CC2)CO[C@@H](C)[C@H]3N)nc(C)n(-c2cccc(Cl)c2Cl)c1=O (atropisomer, axis not shown; (Ra)) [Compound (10b), 6-((3S,4S)-4-amino-3-methyl-2-oxa-8-azaspiro[4.5]decan-8-yl)-3-(Ra)-(2,3-dichlorophenyl)-2,5-dimethylpyrimidin-4(3H)-one]
Human SHP-1
  inhibition of human SHP-1: did not demonstrate any inhibition
[1]
  inhibition or stimulation of >50%: No effects of this magnitude were observed
[2]; [6]
  half-life: 9.18 h
  AUC(0-t): 3.27 µM·h
[2]; male, Sprague Dawley, rat, plasma, IV 0.3 mg/kg, free base, read-out: Clp (converted)
  clearance: 10.2 mL/min/kg
[2]; male, Sprague Dawley, rat, plasma, IV 0.3 mg/kg, free base, read-out: Vdss
  Vd: 6.05 L/kg
[2]; [7]
  Cmax: 3050 nM
  AUC(0-t): 19.1 µM·h
[2]; male, Sprague Dawley, rat, plasma, oral 10 mg/kg, free base, read-out: Tmax (mean)
  Tmax: 0.92 h
[2]; male, Sprague Dawley, rat, plasma, oral 300 mg/kg, read-out: mean Tmax
  Tmax: ≤ 8 h
[2]; oral 10 mg/kg, free base
  F: 51.2%
[2]; oral, with a 30× increase in dosage (10 to 300 mg/kg)
  increase in AUC: 80 ×
[3]; [8]
  half-life: 6.44 h
  AUC(0-t): 1.82 µM·h
[3]; male, cynomolgus monkey, plasma, IV 0.3 mg/kg, read-out: Clp (converted)
  clearance: 6 mL/min/kg
[3]; male, cynomolgus monkey, plasma, IV 0.3 mg/kg, read-out: Vdss
  Vd: 2.74 L/kg
[3]; [9]
  Cmax: 430 nM
  Tmax: 2.67 h
  AUC(0-t): 4.52 µM·h
[3]; oral 1 mg/kg
  F: 52.3%
[4]; oral 1-100 mg/kg
  Tmax: 0.25 to 3.67 h
[4]; oral doses 3- to 30-fold higher than intravenous doses, read-out: apparent oral bioavailabilities
  bioavailability: 51.2 to 115%
NCI-H1299
  IC50: > 25 µM
NCI-H358
  IC50: 0.48 µM
[5]
  impact of treatment on body weight: no impact
  tolerability: well tolerated
